Data published in patent publication US6413951B2, “20-fluoro-17(20)-vinyl steroids” (Aventis Pharmaceuticals, Inc., priority 2000, dated 2002).

Key:
[1] = system: cynomologous monkey C17,20 lyase; test: In vitro C17,20 lyase assay (testicular microsomes); assay type: biochemical, cynomolgus monkey; parameters: unit of the concentration uncertain
Experimental: In vitro C17,20 lyase assay: Compounds were tested for inhibition of cynomologous monkey C17,20 lyase in vitro using microsomal preparations of the enzyme from testicular tissue. Testes were removed from anesthetized animals and flash frozen in liquid nitrogen. Microsomes were isolated as described in Schatzman et al., Anal. Biochem., 175, 219-226 (1988). The compound to be tested was dissolved in DMSO and diluted in 0.05M potassium phosphate buffer, pH 7.4, to give the desired concentrations of test compound, in an amount which contributes 0.1% v/v DMSO to the total assay volume. […] Control assays contained all components, including DMSO, but no test compound. All assays were performed in duplicate. […] The complete assay was incubated at 34° C. for 6 minutes. […] Radioactivity in the steriod peaks was measured using a Radiometric Model HS or Model A515 Flo-One detector. The enzyme activity for each assay was calculated from the conversion of substrate to products, and. the results expressed as percent inhibition of control.

human 5α-reductase = molecular target: T1, human 5α-reductase (Homo sapiens, UniProt P31213); test: In vitro 5α-reductase assay (prostate microsomes), human; assay type: biochemical; conditions: read-out: Km values of testosterone, multiple experiments
T1 construct: microsomal preparations of the 5α-reductase enzyme from human or laboratory animal prostate tissue; from tissue; host or cells: human prostate, microsomes
T1 sequence (P31213 1-254): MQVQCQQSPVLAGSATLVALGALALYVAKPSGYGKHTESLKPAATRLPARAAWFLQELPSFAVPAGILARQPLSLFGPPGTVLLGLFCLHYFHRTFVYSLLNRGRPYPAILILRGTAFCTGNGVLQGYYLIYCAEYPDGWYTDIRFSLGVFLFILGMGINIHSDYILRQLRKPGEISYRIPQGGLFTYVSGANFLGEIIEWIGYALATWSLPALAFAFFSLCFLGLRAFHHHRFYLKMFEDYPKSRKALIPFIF
Experimental: (§1) In vitro 5α-reductase assay: The activity of the present compounds as inhibitors of steroid 5α-reductase was determined using microsomal preparations of the 5α-reductase enzyme from human or laboratory animal prostate tissue. Specifically, prostate tissue was rapidly frozen in liquid nitrogen following removal from the human patient or from a cynomologus monkey (Macaca fascicularis) and subsequently stored at −80° C. The tissue was thawed, minced, and then homogenized in 5 volumes of 0.05M potassium phosphate buffer, pH 7.0, using a Tekmar homogenizer with 3×5 second bursts, followed by 10 strokes in a Dounce homogenizer. The homogenate was sonified in three pulses of 5 seconds each at 50% of maximum power. The homogenate was subjected to differential centrifugation with each supernatant successively centrifuged at 600×G and […] in a Beckman J21 centrifuge followed by 120,000×G in a Beckman Model L5-75 ultracentrifuge. The final pellet, containing the microsomal fraction, was reserved and resuspended in 0.05M potassium phosphate buffer, pH 7.0, containing 25% (w/v) glycerol equal to 1 mL per 3 g wet tissue. The suspension was divided into aliquots, flash frozen using dry ice in methanol, and stored at −80° C. […] Protein concentration was determined by the BioRad dye binding method (BioRad, Richmond, Calif., USA). […]

[2] = system: cynomolgus monkey 5α-reductase; conditions: read-out: Km values of testosterone, multiple experiments
Experimental: as §1

rat 5α-reductase = conditions: read-out: Km values of testosterone, multiple experiments
[3] = Conc. 1 (unit uncertain), Preinc. 0 min
[4] = Conc. 1 (unit uncertain), Preinc. 40 min
[5] = Conc. 10 (unit uncertain), Preinc. 0 min
[6] = Conc. 10 (unit uncertain), Preinc. 40 min

SMILES | % Inhibition [1, 3] | % Inhibition [1, 4] | % Inhibition [1, 5] | % Inhibition [1, 6] | melting point | Km (human 5α-reductase) | Km [2] | Km (rat 5α-reductase)
C[C@]12CC[C@H](O)CC1=CC[C@@H]1[C@@H]2CC[C@]2(C)/C(=C(/F)CO)CC[C@@H]12 [E CH2OH, (17E)-20-Fluoropregna-5,17(20)-diene-3β,21-diol] | 63% | 61% | 85% | 87% | 214 to 216 °C | – | – | –
C/C(F)=C1/CC[C@H]2[C@@H]3CC=C4C[C@@H](O)CC[C@]4(C)[C@H]3CC[C@]12C [E CH3, (17E)-20-fluoropregna-5,17(20)-dien-3β-ol] | 54% | 60% | 88% | 94% | 129 to 133 °C | – | – | –
C[C@]12CC[C@H](O)CC1=CC[C@@H]1[C@@H]2CC[C@]2(C)/C(=C(\F)CO)CC[C@@H]12 [Z CH2OH, (17Z)-20-Fluoropregna-5,17(20)-diene-3β,21-diol] | 96% | 94% | 100% | 100% | 198 to 203 °C | – | – | –
C/C(F)=C1\CC[C@H]2[C@@H]3CC=C4C[C@@H](O)CC[C@]4(C)[C@H]3CC[C@]12C [Z CH3, (17Z)-20-Fluoropregna-5,17(20)-dien-3β-ol] | 49% | 72% | 78% | 94% | 153 to 155 °C | – | – | –
C[C@]12CC[C@H]3[C@@H](CCC4=CC(=O)CC[C@@]43C)[C@@H]1CC[C@@H]2O [testosterone, 17β-hydroxyandrost-4-en-3-one] | – | – | – | – | – | 0.125 to 0.273 µM | 0.025 to 0.091 µM | 0.74 to 0.9 µM
